Tests used:
Assay type in all cases: in vivo
Lolium multiflorum [1] = experiment: Herbicidal pre-emergence action; conditions: greenhouse, 320 g of a.i./ha
Text: (§1) 1. Herbicidal Pre-emergence Action
(§2) Seeds of monocotyledonous and dicotyledonous weed and crop plants are placed into sandy loam in wood fiber pots and covered with soil. The test compounds, formulated in the form of wettable powders (WP) are then, as an aqueous suspension with a water application rate of 600 l/ha (converted), with 0.2% of wetting agent added, applied to the surface of the covering soil in various dosages.
(§3) After the treatment, the pots are placed in the greenhouse and kept under good growth conditions for the test plants. The visual assessment of the emergence damage on the test plants is carried out after a trial period of 3 weeks by comparison with untreated controls (herbicidal effect in percent (%): 100% effect=the plants have died, 0% effect=like control plants).

Avena sativa = experiment: Herbicidal pre-emergence action; conditions: greenhouse, 320 g of a.i./ha
Text: as §1, §2, §3

Setaria viridis [2] = experiment: Herbicidal pre-emergence action; conditions: greenhouse, 320 g of a.i./ha
Text: as §1, §2, §3

Lolium multiflorum [3] = experiment: Herbicidal post-emergence action; conditions: greenhouse, 320 g of a.i./ha
Method: (§4) 2. Herbicidal Post-emergence Action
(§5) Seeds of monocotyledonous and dicotyledonous weed and crop plants are placed into sandy loam in wood fiber pots, covered with soil and cultivated in the greenhouse under good growth conditions. Two to three weeks after sowing, the test plants are treated at the one-leaf stage. The test compounds, formulated as wettable powders (WP), are then, in various dosages with a water application rate of 600 l/ha (converted), with 0.2% of wetting agent added, sprayed onto the green parts of the plants. After the test plants have been kept in the greenhouse under optimum growth conditions for about 3 weeks, the effect of the preparations is rated visually in comparison to untreated controls (herbicidal effect in percent (%): 100% effect=the plants have died, 0% effect=like control plants).

Setaria viridis [4] = experiment: Herbicidal post-emergence action; conditions: greenhouse, 320 g of a.i./ha
Method: as §4, §5

Echinocloa crus-galli = experiment: Herbicidal post-emergence action; conditions: greenhouse, 320 g of a.i./ha
Method: as §4, §5

Summer barley = experiment: Container trials with cereal in a greenhouse, with and without safener (post-emergence); conditions: crop damage; 50 g of a.i./ha; 28 days after application
Method: (§6) Herbicidal Post-emergence Action
(§7) Seeds of monocotyledonous and dicotyledonous weed and crop plants are placed into sandy loam in wood fiber pots or in plastic pots, covered with soil and cultivated in a greenhouse, during the vegetation period also outdoors outside of the greenhouse, under good growth conditions. Two to three weeks after sowing, the test plants are treated at the one- to three-leaf stage. The test compounds, formulated as wettable powders (WP) or liquid (EC) are, in various dosages with a water application rate of 300 l/ha (converted), with wetting agent (0.2 to 0.3%) added, sprayed onto the plants and the surface of the soil. Three to four weeks after the treatment of the test plants, the effect of the preparations is rated visually in comparison to untreated controls (herbicidal effect in percent (%):
(§8) (100% effect=the plants have died, 0% effect=like control plants).
(§9) If it is additionally to be tested as to whether safeners can improve the plant compatibility of test substances in the case of crop plants, the following options are used for applying the safener: • seeds of the crop plants are, before sowing, dressed with the safener substance (amount of safener stated in percent, based on the weight of the seed) • before the application of the test substances, the crop plants are sprayed with the safener at a certain application rate per hectare (usually 1 day before the application of the test substances) • the safener is applied together with the test substance as a tank mix (amount of safener stated in g/ha or as a ratio, based on the herbicide).
(§10) By comparing the effect of the test substances on crop plants without or with safener treatment, it is possible to assess the effect of the safener substance.
(§11) Container Trials with Cereal in a Greenhouse
(§12) Mefenpyr 1 Day Prior to Herbicide Application

Summer wheat = experiment: as above; conditions: crop damage, 28 days after application
Method: as §6, §7, §8, §9, §10, §11, §12

Structure (SMILES): CCc1cc(C)cc(OC)c1C1=C(O)C2(CCC(OC)CC2)NC1=O (single isomer, unassigned) [Example I-a-6]
- Lolium (herbicidal effect in percent) (Lolium multiflorum [1]): 100
- Avena (herbicidal effect in percent) (Avena sativa): 100
- Setaria (herbicidal effect in percent) (Setaria viridis [2]): 100
- Lolium (herbicidal effect in percent) (Lolium multiflorum [3]): 100
- Setaria (herbicidal effect in percent) (Setaria viridis [4]): 90
- Echinochloa (herbicidal effect in percent) (Echinocloa crus-galli): 100

Structure (SMILES): CCc1cc(C)cc(OC)c1C1=C(O)C2CCCN2C1=O (stereo not shown) [Example I-a-2]
- Summer barley observed (%) (Summer barley): 90%
- Summer wheat observed (%) (Summer wheat; 12.5 g of a.i./ha): 40%
- Summer wheat observed (%) (Summer wheat; 25 g of a.i./ha): 60%
- Summer wheat observed (%) (Summer wheat; 50 g of a.i./ha): 95%
- Lolium (herbicidal effect in percent) (Lolium multiflorum [3]): 100
- Setaria (herbicidal effect in percent) (Setaria viridis [4]): 100
- Echinochloa (herbicidal effect in percent) (Echinocloa crus-galli): 100

— patent US7718186B2, “2-alkoxy-6-alkylphenyl-substituted spirocyclic tetramic acid derivatives” (Bayer CropScience AG, priority 2004, dated 2010)
